Assays:
[1] = test system: cough caused by tracheal mechanical stimulus; conditions: guinea pig, relative to codeine; cited from earlier work
cough = conditions: cited from earlier work
[2] = particle size distribution by laser diffraction (Malvern Mastersizer-2000, dry dispersion); assay type: physicochemical; conditions: volume particle size distribution of the drug substance used
Procedure: Particle size is determined by laser light scattering using a particle size analyzer, such as the proprietary Mastersizer™ apparatus in a dry dispersion system available from Malvern Instruments Ltd. (Malvern Mastersizer-2000, single narrow mode). Laser diffraction enables to measure particle size distributions by measuring the angular variation by scattering light intensity as a laser beam passes through a dispersed particulate sample. Large particles scatter light at small angles relative to the laser beam and small particles scatter light at large angles. The angular scattering intensity data is then analyzed to calculate the size of the particles responsible for creating the scattering pattern, using the Mie theory of light scattering. The particle size is reported as a volume equivalent sphere diameter.
A common approach to define the distribution width is to cite three values on the x-axis as D10, D50 and D90. The D50, named as median, has been defined as the diameter where 50 percent of the distribution lies below this value. Similarly, D90 has been defined as 90 percent of the distribution lies below, and 10 percent of the population lies below the D10.

| Compound | efficacy against cough, times greater than codeine [1] [times] | duration of action of a single dose (cough; single dose) [h] | initial response after oral administration (cough; therapeutic dose range 10-20 mg three times daily for adults, oral) [min] | d(0.1) [2] | d(0.5) [2] | d(0.9) [2] |
| --- | --- | --- | --- | --- | --- | --- |
| Clc1ccc(C(OCCN2CCCCC2)c2ccccc2)cc1 (racemic) [cloperastine] | 1.9 | 3 to 4 | 20 to 30 | – | – | – |
| Clc1ccc([C@@H](OCCN2CCCCC2)c2ccccc2)cc1.O=C(O)c1ccccc1C(=O)c1ccc(O)c(-c2ccccc2)c1 [Levocloperastine fendizoate] | – | – | – | d(0.1): 3.031 µm | d(0.5): 13.126 µm | d(0.9): 39.322 µm |
